Measured values: patent US8063225B2, “Tricyclic compound derivatives useful in the treatment of neoplastic diseases, inflammatory disorders and immunomodulatory disorders” (Chembridge Corporation, priority 2006, dated 2011)

How the values were obtained:
Alk = molecular target: T1, Alk (Homo sapiens, UniProt Q9UM73); experiment: Tyrosine kinase assay (Kinase-Glo or AlphaScreen), Alk; conditions: biochemical tyrosine kinase assay
T1 construct: 6×His- or GST-tagged kinase domain fragments of the corresponding RTKs expressed in baculovirus system; host or cells: baculovirus system
T1 sequence (Q9UM73 1116-1392 limits assumed, species assumed): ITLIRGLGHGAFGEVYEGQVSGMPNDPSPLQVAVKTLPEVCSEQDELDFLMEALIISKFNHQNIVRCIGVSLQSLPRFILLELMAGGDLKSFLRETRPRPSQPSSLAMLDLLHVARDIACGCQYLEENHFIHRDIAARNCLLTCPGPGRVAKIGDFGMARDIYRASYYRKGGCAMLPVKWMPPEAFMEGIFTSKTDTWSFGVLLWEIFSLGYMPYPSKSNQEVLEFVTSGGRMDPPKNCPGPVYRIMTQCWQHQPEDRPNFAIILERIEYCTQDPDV
Outline: (§1)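 Kinase-Glo format: baculovirus-expressed tagged kinase domain, poly(Glu-Tyr), 10 μM ATP, pH 7.5 Tris, MgCl2/MnCl2, DTT; 60 min at 37° C; remaining ATP by luciferase luminescence. Other kinases run identically, enzyme titrated to ≤30% ATP consumption. IC50 by non-linear regression, quadruplicates.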

[1] = system: CHO (chinese hamster ovary); experiment: Cell proliferation inhibition, Cell Titer-Glo, CHO; format: cell-based; conditions: Cricetulus griseus; cell proliferation assay, CHO cells
Description: (§2) IGF1R and other tyrosine kinase inhibitors can inhibit the proliferation of certain cancer cell lines indicating their possible therapeutic utility for treating the corresponding cancer types. Cancer cell lines of interest and control normal lines, including CHO, HEK293, BA/F3, MM1, H929, COLO205, PC3, DU145, MCF7, Panc1, ACHN, Hep G2, H460, K562, TT, U87-G, CAOV-3, SK-MEL5, Karpas 299, are plated in white, clear-bottomed 384-well cell culture plates at 2500-5000 cells per well and supplied with dilutions of tested compounds After a desired period of time (typically 3 days), the number of viable cells is quantitated by using Cell Titer-Glo Luminescent Cell Viability Assay (Promega), a cell proliferation assay system based on detection of total amount of ATP present as a measure of cell metabolic activity. The plated cells are mixed with the Cell Titer-Glo developing reagent and counted in a luminescence multiwell plate reader according to the standard manufacturer's protocol to generate IC50 curves for cell proliferation inhibition.
(§3) IGF1R and other tyrosine kinase inhibitors can inhibit the proliferation of certain cancer cell lines indicating their possible therapeutic utility for treating the corresponding cancer types. Cancer cell lines of interest and control normal lines, including CHO, HEK293, BA/F3, COLO205, PC3, DU145, MCF7, Panc1, ACHN, Hep G2, H460, K562, TT, U87-MG, CAOV-3, SK-MEL5, Karpas 299 and human multiple myeloma cell lines H929, MM1s, MM1r, UTMC2, CPM2, KMS11, My5, KMS12PE, My7, JJN3, KMS18, U266, SKMM2, RPMI-8226 are plated in white, clear-bottomed 384-well cell culture plates at 2500-5000 cells per well and supplied with dilutions of tested compounds After a desired period of time (typically 3 days), the number of viable cells is quantitated by using Cell Titer-Glo Luminescent Cell Viability Assay (Promega), a cell proliferation assay system based on detection of total amount of ATP present as a measure of cell metabolic activity. The plated cells are mixed with the Cell Titer-Glo developing reagent and counted in a luminescence multiwell plate reader according to the standard manufacturer's protocol to generate IC50 curves for cell proliferation inhibition. Results are typically reported as percent of growth (% viability =(OD72h(compound)−ODday0))/(OD72h(no compound)−ODday0). Alternatively, viable cells are quantitated by using the conventional colorimetric MTT assay. The MTT assay is based on the cleavage of the yellow tetrazolium salt MTT to purple formazan crystal by metabolic active cells. The formazan is then solubilized, and the concentration determined by optical density at 570 nm. The cells plated and incubated with a compound as described above are supplemented with the solution of MTT and incubated for 2-3 hours. The growth medium is removed and dimethyl sulfoxide is added into each well to dissolve the formazan. The absorbance is measured on an ELISA plate reader with a test wavelength of 570 nm and a background subtraction wavelength of 630 nm to obtain sample signal (OD570-OD630). […] The results are reported in terms of IC50 value for a particular compound and a cell line in the standard 3-day proliferation assay using Cell Titer-Glo. […] The results are reported in terms of IC50 value for a particular compound and a cell line in the standard 3-day proliferation assay using MTT assay.

Jak2 = molecular target: T2, Jak2 (Homo sapiens, UniProt O60674); experiment: Tyrosine kinase assay (Kinase-Glo or AlphaScreen), Jak2; conditions: biochemical tyrosine kinase assay
T2 construct: 6×His- or GST-tagged kinase domain fragments of the corresponding RTKs expressed in baculovirus system; host or cells: baculovirus system
T2 sequence (O60674 849-1124 limits assumed, species assumed): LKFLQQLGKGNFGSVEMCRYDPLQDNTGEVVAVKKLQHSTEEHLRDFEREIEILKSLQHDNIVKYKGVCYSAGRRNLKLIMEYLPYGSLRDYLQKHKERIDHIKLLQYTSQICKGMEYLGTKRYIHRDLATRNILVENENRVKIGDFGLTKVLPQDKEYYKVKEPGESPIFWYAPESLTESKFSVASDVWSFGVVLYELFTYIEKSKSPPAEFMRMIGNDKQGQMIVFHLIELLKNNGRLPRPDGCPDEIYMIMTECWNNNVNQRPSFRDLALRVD
Outline: as §1

[2] = system: HEK293 (human normal embryonic kidney); experiment: Cell proliferation inhibition, Cell Titer-Glo, HEK293; format: cell-based; conditions: cell proliferation assay, HEK293 cells, read-out: HEK 293 IC50
Description: as §2, §3

InsR = molecular target: T3, InsR (Homo sapiens, UniProt P06213); experiment: Tyrosine kinase assay (Kinase-Glo or AlphaScreen), InsR; conditions: biochemical tyrosine kinase assay
T3 construct: 6×His- or GST-tagged kinase domain fragments of the corresponding RTKs expressed in baculovirus system; host or cells: baculovirus system
T3 sequence (P06213 1023-1298 limits assumed, species assumed): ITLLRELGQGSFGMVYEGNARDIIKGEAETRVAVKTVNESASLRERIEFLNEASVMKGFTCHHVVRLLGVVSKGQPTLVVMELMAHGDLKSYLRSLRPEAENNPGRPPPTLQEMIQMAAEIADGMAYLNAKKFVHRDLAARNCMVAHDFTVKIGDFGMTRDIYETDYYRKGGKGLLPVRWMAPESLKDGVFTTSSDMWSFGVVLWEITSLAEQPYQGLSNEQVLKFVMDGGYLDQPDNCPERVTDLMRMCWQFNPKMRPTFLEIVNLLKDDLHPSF
Outline: as §1

IGF1R tyrosine kinase = molecular target: T4, IGF1R tyrosine kinase (Homo sapiens, UniProt P08069); experiment: IGF1R tyrosine kinase assay (Kinase-Glo ATP depletion or PT66/PT100 AlphaScreen); conditions: biochemical tyrosine kinase assay
T4 construct: 6×His- or GST-tagged kinase domain fragments of the corresponding RTKs expressed in baculovirus system; host or cells: baculovirus system
T4 sequence (P08069 999-1274 limits assumed): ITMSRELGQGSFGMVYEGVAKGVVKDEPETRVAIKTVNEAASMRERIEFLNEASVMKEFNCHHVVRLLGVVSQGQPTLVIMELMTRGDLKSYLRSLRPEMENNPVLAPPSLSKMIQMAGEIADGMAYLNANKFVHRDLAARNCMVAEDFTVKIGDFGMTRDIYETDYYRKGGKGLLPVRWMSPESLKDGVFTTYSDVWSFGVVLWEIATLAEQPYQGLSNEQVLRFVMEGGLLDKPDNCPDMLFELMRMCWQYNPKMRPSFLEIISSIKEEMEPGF
Outline: as §1

H929 (multiple myeloma) = experiment: Cell proliferation inhibition, Cell Titer-Glo, H929; format: cell-based; conditions: Homo sapiens, NCI-H929; cell proliferation assay, H929 cells
Outline: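 Cells seeded at 2500-5000 per well with serially diluted compound for typically 3 days. Viable cells measured by ATP luminescence (Cell Titer-Glo); IC50 from proliferation-inhibition curves.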

| SMILES | IC50 (Alk) [µM] | IC50 [1] [µM] | IC50 (Jak2) [µM] | IC50 [2] [µM] | IC50 (InsR) [µM] | IC50 (IGF1R tyrosine kinase) [µM] | IC50 (H929 (multiple myeloma)) [µM] |
| --- | --- | --- | --- | --- | --- | --- | --- |
| COc1ccc(OC[C@H](O)CNc2cc[nH]c(=O)c2-c2nc3cc4c(cc3[nH]2)CN(C2CCN(C)CC2)C4=O)c(Cl)c1 [compound 146] | 0.5 to 5 | > 15 | < 0.5 | > 15 | < 0.5 | < 0.5 | 5 to 15 |
| CN1CCC(N2Cc3cc4nc(-c5c(NC[C@@H](O)COc6ccccc6C(F)(F)F)cc[nH]c5=O)[nH]c4cc3C2=O)CC1 [compound 149] | < 0.5 | > 15 | < 0.5 | 5 to 15 | < 0.5 | < 0.5 | 0.5 to 5 |
| CN1CCC(N2Cc3cc4nc(-c5c(NC[C@@H](O)COc6cc7c(cc6Cl)OCO7)cc[nH]c5=O)[nH]c4cc3C2=O)CC1 [compound 157] | 0.5 to 5 | > 15 | < 0.5 | – | < 0.5 | < 0.5 | > 15 |
| Cc1ccc(F)c(OC[C@H](O)CNc2cc[nH]c(=O)c2-c2nc3cc4c(cc3[nH]2)C(=O)N(C2CCN(C)CC2)C4)c1Cl [compound 147] | 5 to 15 | > 15 | < 0.5 | > 15 | < 0.5 | < 0.5 | 0.5 to 5 |
| CN1CCC(N2Cc3cc4nc(-c5c(NC[C@@H](O)COc6cccc(C(F)(F)F)c6Cl)cc[nH]c5=O)[nH]c4cc3C2=O)CC1 [compound 154] | > 15 | > 15 | < 0.5 | – | < 0.5 | < 0.5 | 5 to 15 |
| CN1CCC(N2Cc3cc4[nH]c(-c5c(NC[C@@H](O)COc6ccc(F)cc6Br)cc[nH]c5=O)nc4cc3C2=O)CC1 [compound 165] | 0.5 to 5 | 5 to 15 | < 0.5 | > 15 | < 0.5 | < 0.5 | 0.5 to 5 |
| CN1CCC(N2Cc3cc4nc(-c5c(NC[C@@H](O)COc6ccc(F)cc6F)cc[nH]c5=O)[nH]c4cc3C2=O)CC1 [compound 148] | 0.5 to 5 | 5 to 15 | < 0.5 | > 15 | < 0.5 | < 0.5 | 5 to 15 |
| CN1CCC(N2Cc3cc4[nH]c(-c5c(NC[C@@H](O)COc6cc(F)c(F)cc6Br)cc[nH]c5=O)nc4cc3C2=O)CC1 [compound 168] | 0.5 to 5 | > 15 | < 0.5 | > 15 | < 0.5 | < 0.5 | 5 to 15 |
| CN1CCC(N2Cc3cc4nc(-c5c(NC[C@@H](O)COc6c(F)ccc(F)c6Cl)cc[nH]c5=O)[nH]c4cc3C2=O)CC1 [compound 155] | 5 to 15 | > 15 | < 0.5 | – | < 0.5 | < 0.5 | 5 to 15 |
| Cc1ccc(OC[C@H](O)CNc2cc[nH]c(=O)c2-c2nc3cc4c(cc3[nH]2)CN(C2CCN(C)CC2)C4=O)c(Br)c1 [compound 166] | 0.5 to 5 | 5 to 15 | < 0.5 | > 15 | < 0.5 | < 0.5 | 0.5 to 5 |
| CN1CCC(N2Cc3cc4nc(-c5c(NC[C@@H](O)COc6cc(F)ccc6Cl)cc[nH]c5=O)[nH]c4cc3C2=O)CC1 [compound 150] | 0.5 to 5 | > 15 | < 0.5 | – | < 0.5 | < 0.5 | 5 to 15 |
| Cc1ccc(Cl)c(OC[C@H](O)CNc2cc[nH]c(=O)c2-c2nc3cc4c(cc3[nH]2)C(=O)N(C2CCN(C)CC2)C4)c1F [compound 158] | 5 to 15 | > 15 | < 0.5 | – | < 0.5 | < 0.5 | 5 to 15 |
| CN1CCC(N2Cc3cc4nc(-c5c(NC[C@@H](O)COc6cc(C(F)(F)F)ccc6Cl)cc[nH]c5=O)[nH]c4cc3C2=O)CC1 [compound 151] | 5 to 15 | > 15 | < 0.5 | – | < 0.5 | < 0.5 | 5 to 15 |
| CN1CCC(N2Cc3cc4nc(-c5c(N[C@@H](CO)Cc6ccccc6)cc[nH]c5=O)[nH]c4cc3C2=O)CC1 [compound 160] | 0.5 to 5 | > 15 | 0.5 to 5 | – | < 0.5 | 0.5 to 5 | 5 to 15 |
| COc1cccc(OC[C@H](O)CNc2cc[nH]c(=O)c2-c2nc3cc4c(cc3[nH]2)C(=O)N(C2CCN(C)CC2)C4)c1C [compound 159] | 5 to 15 | > 15 | < 0.5 | – | < 0.5 | < 0.5 | 5 to 15 |
| CCc1cc2c(cc1OC[C@H](O)CNc1cc[nH]c(=O)c1-c1nc3cc4c(cc3[nH]1)C(=O)N(C1CCN(C)CC1)C4)OCO2 [compound 156] | 0.5 to 5 | > 15 | < 0.5 | – | < 0.5 | < 0.5 | 5 to 15 |
| CN1CCC(N2Cc3cc4nc(-c5c(NC[C@@H](O)COc6cc(F)cc(F)c6Cl)cc[nH]c5=O)[nH]c4cc3C2=O)CC1 [compound 152] | 0.5 to 5 | > 15 | < 0.5 | – | < 0.5 | < 0.5 | 5 to 15 |
| CN1CCC(N2Cc3cc4nc(-c5c(NC[C@@H](O)COc6c(F)cccc6Cl)cc[nH]c5=O)[nH]c4cc3C2=O)CC1 [compound 153] | 5 to 15 | > 15 | < 0.5 | – | < 0.5 | < 0.5 | 5 to 15 |
